Experimental data taken from article PMC5504357, “Antifungal Potential of Copper(II), Manganese(II) and Silver(I) 1,10-Phenanthroline Chelates Against Multidrug-Resistant Fungal Species Forming the Candida haemulonii Complex: Impact on the Planktonic and Biofilm Lifestyles” (Frontiers in Microbiology, 2017).

Legend:
[1] = tested on: Candida haemulonii complex; test: Biofilm-growing cells, overall across isolates; format: cell-based; details: for Overall GM-bMIC: geometric mean across strains, values marked * do not include LIP Ch4 (>512)
In short: (§1)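 Biofilms were grown from 10^6 yeast cells in Sabouraud-dextrose broth for 48 h at 37°C, washed three times with PBS pH 7.2, then exposed to compounds (same concentrations as planktonic assays) for another 48 h at 37°C. Metabolic activity was read by XTT reduction; bMIC is the lowest concentration giving 50% inhibition versus compound-free wells.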

Solubility in solvents = format: physicochemical; details: solvents as named
Method: {[Cu(3,6,9-tdda)(phen)2].3H2O.EtOH}n (7). Step (i): Copper(II) acetate hydrate (1.50 g; 7.51 mmol) was dissolved in ethanol (50 mL) and the solution was added to an ethanolic solution (25 mL) of 3,6,9-trioxaundecanedioic acid (3,6,9-tddaH2) (2.84 g; […]). The light-green suspension was refluxed for 1 h, and after cooling to room temperature the light-green solid, [Cu(3,6,9-tdda)].H2O, was filtered off, washed with cold ethanol and air dried. Yield: 1.88 g (82.97%). % Calculated: C: 31.84, H: 4.68. % Found: C: 32.20, H: 4.60. […] Step (ii): [Cu(3,6,9-tdda)].H2O (1.00 g; 3.31 mmol) and phen (2.39 g; 13.26 mmol) were dissolved together in ethanol (50 mL) and the resulting dark-green mixture was refluxed for 2 h. The suspension was cooled and the green solid, {[Cu(3,6,9-tdda)(phen)2]3H2O.EtOH}n(7), was filtered off, washed with cold ethanol and air dried. Yield: 1.63 g (66.09%). % Calculated: C: 54.87, H: 5.42, N: 7.53. % Found: C: 54.65, H: 5.63, N: 7.39.
[Ag2(3,6,9-tdda)(phen)4].EtOH (16). Step (i): Silver(I) acetate (3.00 g; 17.97 mmol) was dissolved in ethanol (30 mL) and the solution was added to an ethanolic solution (25 mL) of 3,6,9-trioxaundecanedioic acid (3,6,9-tddaH2) (2.84 g; 8.95 mmol) and the orange-brown suspension refluxed for 3 h. […] Green [Ag2(3,6,9-tdda)(phen)4].EtOH (16) precipitated and was filtered off, washed with cold ethanol and air dried. Yield: 0.83 g (65.10%). % Calculated: C: 57.92, H: 4.19, N: 9.32. % Found: C: 57.75, H: […], N: 9.02. IR (KBr) νmax: 3380, 3046, 2905, 1978, 1804, 1618, 1585, 1509, 1421, 1322, 1263, 1215, 1121, 1077, 1018, 932, 890, 838, 726, 621, 465, 413 cm^−1. ^1H NMR (500 MHz, DMSO-d6, 313 K, TMS) δ = 9.12(8H, s), 8.63 (8H, d), 8.08 (8H, s), 7.91 (8H, dd), 3.74 (4H, s), 3.57 (8H, dd). ^13C NMR (125 MHz, DMSO-d6, 313 K, TMS) δ = 173.41, 151.28, 143.57, 138.03, 129.24, 127.37, 124.74, 71.44, 70.42, 69.74.

Candida duobushaemulonii = test: Biofilm-growing cells, XTT assay, bMIC; format: cell-based; details: for GM-bMIC: geometric mean, C. duobushaemulonii isolates; for bMIC: mature biofilm, 48 h, 50% inhibition of metabolic activity
In short: as §1

Candida haemulonii = test: Biofilm-growing cells, XTT assay, bMIC; format: cell-based; details: for GM-bMIC: geometric mean, C. haemulonii isolates, values marked * do not include LIP Ch4 (>512); for bMIC: mature biofilm, 48 h, 50% inhibition of metabolic activity
In short: as §1

[2] = tested on: Candida haemulonii var. vulnera; test: Biofilm-growing cells, XTT assay, bMIC; format: cell-based; details: for GM-bMIC: geometric mean, C. haemulonii var. vulnera isolates; for bMIC: mature biofilm, 48 h, 50% inhibition of metabolic activity
In short: as §1

A549 cells = test: Mammalian cell toxicity (MTT assay) and selectivity index; format: cell-based, Human; details: MTT, 48 h incubation
In short: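 A549 cells were exposed to compounds (0.0313–512 μg/mL) in DMEM for 48 h at 37 °C, 5% CO2. Viability was measured by MTT (3 h, dark), with formazan dissolved in DMSO and read at 450 nm. CC50 was derived, and SI calculated as A549 CC50 divided by C. haemulonii complex GM-MIC.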

Compound | decrease in activity on going from planktonic to biofilm cells ([1]; biofilm MIC versus planktonic MIC) [fold] | Overall GM-bMIC [1] [mg/L] | Solubility (Solubility in solvents) | GM-bMIC (Candida duobushaemulonii) [mg/L] | bMIC (Candida duobushaemulonii; isolate LIP Ch1) [mg/L] | bMIC (Candida duobushaemulonii; isolate LIP Ch6) [mg/L] | bMIC (Candida duobushaemulonii; isolate LIP Ch8) [mg/L] | GM-bMIC (Candida haemulonii) [mg/L] | bMIC (Candida haemulonii; isolate LIP Ch4) [mg/L] | bMIC (Candida haemulonii; isolate LIP Ch7) [mg/L] | bMIC (Candida haemulonii; isolate LIP Ch14) [mg/L] | GM-bMIC [2] [mg/L] | bMIC ([2]; isolate LIP Ch5) [mg/L] | bMIC ([2]; isolate LIP Ch9) [mg/L] | bMIC ([2]; isolate LIP Ch13) [mg/L] | A549 (CC50) (A549 cells) [µg/mL]
CCO.O=C([O-])COCCOCCOCC(=O)[O-].[Ag+].[Ag+].c1cnc2c(c1)ccc1cccnc12.c1cnc2c(c1)ccc1cccnc12.c1cnc2c(c1)ccc1cccnc12.c1cnc2c(c1)ccc1cccnc12 [compound 16, [Ag2(3,6,9-tdda)(phen)4].EtOH] | 6.3 | 6.35 | soluble in H2O, MeOH, EtOH and insoluble in ethyl acetate and acetone | 6.35 | 4 | 8 | 8 | 16 | 32 | 16 | 8 | 2.52 | 4 | 1 | 4 | 2.21
{[Cu(3,6,9-tdda)(phen)2].3H2O.EtOH}n [compound 7] |  | 5.88 | soluble in H2O, MeOH, EtOH and insoluble in ethyl acetate and acetone | 8 | 16 | 4 | 8 | 8 | 32 | 4 | 4 | 3.17 | 4 | 4 | 2 | 1.06
